{
  "source": "patent US6355238B1",
  "about": "“Specific immune system modulation” (Yale University, priority 1992, dated 2002)",
  "key": {"[1]": {"conditions": "compared with 8-MOP; Calzavara-Pinton et al. 1992; cited from earlier work"}, "[2]": {"target": "T1, Chick ovalbumin (Gallus gallus, UniProt P01012)", "T1 sequence (P01012 1-386)": "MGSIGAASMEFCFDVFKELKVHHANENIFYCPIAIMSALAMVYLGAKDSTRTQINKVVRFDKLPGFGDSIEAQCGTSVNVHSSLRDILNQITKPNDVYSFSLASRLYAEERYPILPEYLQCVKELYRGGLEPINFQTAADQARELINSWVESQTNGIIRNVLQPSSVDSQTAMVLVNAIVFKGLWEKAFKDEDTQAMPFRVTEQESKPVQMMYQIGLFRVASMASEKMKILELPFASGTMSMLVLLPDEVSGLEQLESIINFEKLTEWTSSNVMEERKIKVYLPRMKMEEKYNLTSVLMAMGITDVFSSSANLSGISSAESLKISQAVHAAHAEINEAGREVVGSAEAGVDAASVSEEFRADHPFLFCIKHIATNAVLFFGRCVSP", "experiment": "Covalent photobinding of 8-MOP to ovalbumin with visible light", "assay_type": "binding", "method": "Approximately 0.1% photoadducts were observed per amino acid.\nOvalbumin (0.4 mg/ml) and 8-MOP (0.04 mg/ml) containing trace amounts of [^3H]8-MOP) were exposed to visible radiation (419 nm) for 60 min. and thereafter, dialyzed exhaustively using distilled water in a microdialyzer (BRL, Bethesda, Md.). An aliquot of the sample was analyzed by liquid scintillation analysis."}, "[3]": {"target": "Lysozyme (Gallus gallus, UniProt P00698)", "sequence (P00698 19-147)": "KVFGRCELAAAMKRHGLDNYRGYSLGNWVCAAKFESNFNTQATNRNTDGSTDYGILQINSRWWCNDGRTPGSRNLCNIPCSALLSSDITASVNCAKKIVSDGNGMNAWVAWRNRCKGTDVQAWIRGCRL", "experiment": "Covalent photobinding of 8-MOP to lysozyme (liquid scintillation, [3H]8-MOP)", "assay_type": "binding", "conditions": "lysozyme 0.4 mg/ml, 8-MOP 0.04 mg/ml", "method": "Lysozyme (0.4 mg/ml) and 8-MOP (0.04 mg/ml) including trace amounts of [3H]8-MOP) were exposed to UVA (3.6 mW/cm^2; filtered with window glass to remove UVB). Aliquots were taken after 15, 30, 60 and 120 min. UVA exposure and were dialyzed exhaustively using distilled water in a microdialyzer (BRL, Bethesda, Md.). An aliquot of each sample was analyzed by liquid scintillation analysis to determine the extent of covalent photobinding of 8-MOP."}},
  "data": [
    {"molecule": "COc1c2ccoc2cc2oc(=O)ccc12", "note": "[5-MOP, 5-methoxypsoralen]", "values": [
      {"measurement": "efficacy in the treatment of psoriasis", "setting": "[1]", "value": "not as efficacious as 8-MOP"}
    ]},
    {"molecule": "COc1c2occc2cc2ccc(=O)oc12", "note": "[8-MOP, 8-methoxypsoralen]", "values": [
      {"measurement": "photoadducts per amino acid", "setting": "[2]; visible light (419 nm)", "value": "Approximately 0.1%"},
      {"measurement": "extent of covalent photobinding of 8-MOP to ovalbumin", "setting": "[2]; visible radiation (419 nm) 60 min, ovalbumin 0.4 mg/ml, 8-MOP 0.04 mg/ml", "value": "approximately 0.039 8-MOP molecules/ovalbumin molecule"},
      {"measurement": "moles 8-MOP/moles Lysozyme", "setting": "[3]; 0 min UVA exposure", "value": "0 moles 8-MOP/moles Lysozyme"},
      {"measurement": "moles 8-MOP/moles Lysozyme", "setting": "[3]; 30 min UVA exposure (3.6 mW/cm^2)", "value": "0.90 moles 8-MOP/moles Lysozyme"},
      {"measurement": "moles 8-MOP/moles Lysozyme", "setting": "[3]; 60 min UVA exposure (3.6 mW/cm^2)", "value": "2.04 moles 8-MOP/moles Lysozyme"},
      {"measurement": "moles 8-MOP/moles Lysozyme", "setting": "[3]; 120 min UVA exposure (3.6 mW/cm^2)", "value": "1.86 moles 8-MOP/moles Lysozyme"}
    ]}
  ]
}
